Measured values: US11608313B2, “Adamantylmethylamine derivative and use thereof as pharmaceutical” (TOHOKU UNIVERSITY, priority 2017, dated 2023)

How the values were obtained:
Type in all cases: in vivo
[1] = test system: Kir6.1-deficient mice treated with corticosterone; assay: Anxiety-related behavioral tests in corticosterone-treated Kir6.1-deficient mice; conditions: TP-014 treatment 2 weeks
Description: Wild-type mice (C57BL/6J, Japan SLC, two month-old) treated with corticosterone (at a dose of 5 mg/kg once a day for 2 weeks) and Kir6.1-deficient mice treated with corticosterone were used as disease models showing anxiety-like symptoms, to perform five behavioral tests regarding anxiety-related behaviors. The Kir6.1-deficient mice were obtained from Professor Susumu Seino, School of Medicine of Kobe University (Miki T., et al., Nature Medicine 2002, 8, 466-472).
The results of all the tests described above confirmed that chronic treatment with TP-014 (for 2 weeks) ameliorates exacerbated anxiety-like symptoms.

[2] = test system: APP23 mice; assay: Y-maze test in APP23 mice; conditions: 1 mg/kg orally once a day for two months
Description: FIGS. 4-1 to 4-4 show the results of behavioral analyses. FIGS. 4-1 and 4-2 show the results of analysis of attentional function in wild-type mice (C57BL/6J, Japan SLC) v.s. APP23 mice (n=5 per group) by conventional Y-maze test. […] In the Y-maze test, mice are allowed to freely walk between three arms for 8 minutes. Here, the different arms are designated as A, B and C. A mouse positioned in arm A can move to arm B or C. If the mouse moves to arm B, then the mouse may move to arm C. Such a mouse moving sequentially between arms A, B and C is regarded as a mouse giving correct answer. […] The arms to which a mouse move are recorded in the order they are chosen by the mouse, and the number of times that a mouse moves between three arms within a specified time is counted and regarded as “total arm entries”. Further, the number of correct-answers (the number of times that a mouse moving sequentially between three different arms) is counted and regarded as the number of alternation behaviors (“No. of alternations”). The percentage of “No. of alternations” relative to the number obtained by subtracting 2 from “total arm entries” is expressed as percent alternation (%) which serves as an index for normal alternation behavior (correct answer rate in spatial working memory). […]

[3] = test system: amyloid-β (Aβ); assay: Aβ aggregation in brain slices of APP23 mice (6E10 and thioflavin staining); conditions: APP23 mice 14 month-old, chronic oral treatment for 2 months, 1 mg/kg
Description: The amyloid-β (Aβ) hypothesis regarding the pathogenesis of Alzheimer's disease has still been of great importance. It has been confirmed by immunostaining that Aβ aggregation occurs in APP23 mice (14 month-old). 50 μm brain slices were prepared from each of WT (control) and APP23 mice, and stained with 6E10 (anti-Aβ antibody, produced by Abcam) and thioflavin. The other conditions were in line with conventional immunostaining methods. […] Aβ aggregation was suppressed by chronic treatment with TP-014 (chronic oral treatment for 2 months (1 mg/kg)).

[4] = test system: Kir6.2 channel-deficient mice; assay: Behavioral tests and LTP evaluation in Kir6.2 channel-deficient mice; conditions: Kir6.2-deficient mice, chronic treatment two months
Description: In order to confirm that TP-014 acts to inhibit Kir6.2 channels, Kir6.2 channel-deficient mice were analyzed by the same behavioral tests as in Test Example 4 (FIGS. 8-1 and 8-2: Y-maze test; FIG. 8-3: new object recognition test; FIG. 8-4: fear conditioning test; FIGS. 8-5 to FIG. 8-7: LTP improvement evaluation; n=5 per group) to identify the action site of TP-014. The results shown in FIGS. 8-1 to 8-7 confirmed that cognitive function impairment was induced in the Kir6.2-deficient mice. […] The analysis methods were the same as in Test Examples 4 to 7. Kir6.2-deficient mice were obtained from Professor Susumu Seino, School of Medicine of Kobe University (Miki T., et al., Proc. Natl. Acad. Sci. U.S.A. 1998, 95, 10402-10406).

[5] = test system: APP23 mice; assay: Fear conditioning test in APP23 mice; conditions: treated for two months
Description: The fear conditioning test is an analysis method that takes advantage of the characteristic preference of mice for a dark place over a bright place. On day 1, a mouse is placed in a bright place. The mouse, which prefers darkness, enters a dark place (dark box), but then electrical simulation is delivered to the mouse. The mouse is surprised, returns to the bright place, and never enters the dark place. On day 2, the mouse is placed again in the bright place (the same place as on day 1) and observed for 5 minutes to see whether the mouse enters a dark place. If the mouse immediately enters the dark place, it is determined that the mouse experiences a decline in fear memory. “Latency” refers to the number of seconds until the mouse placed in the bright place on day 2 enters a dark place.

[6] = test system: CaMKII; assay: CaMKII activation in hippocampus of Kir6.2-deficient mice (immunoblotting); conditions: chronic treatment
Description: By following the same procedure as in Test Examples 4 to 7, hippocampal slices were suspended in an SDS sample buffer and analyzed by immunoblotting for GluAl (Ser-831), which is known as a molecule that is activated by activation of CaMKII and CaMKIV, to thereby investigate the intracellular mechanism of cognitive function impairment in Kir6.2-deficient mice. The results are shown in FIGS. 9-1 and 9-2 (FIG. 9-1: band images obtained by immunoblotting; FIG. 9-2: results of quantification of the signal intensity of bands). In the hippocampus of the Kir6.2-deficient mice, increased CaMKII activation was seen and no effect was found of chronic treatment with TP-014.

[7] = test system: Kir6.1-deficient mice (heterozygous); assay: Tail-suspension test and forced swim test in Kir6.1-deficient mice; conditions: chronic oral treatment for 2 weeks, 1 mg/kg
Description: Kir6.1-deficient mice (heterozygous, n=5 per group) were used to measure immobility time by tail-suspension test (FIG. 12-1) and forced swim test (FIG. 12-2) according to the same procedure as in Test Example 11. The heterozygous mice are those with half expression of Kir6.1 channels, unlike homozygous mice (complete Kir6.1-deficient mice) (homozygous mice die of arrhythmia after birth). […] The Kir6.1-deficient mice were obtained from Professor Susumu Seino, School of Medicine of Kobe University (Mild T., et al., Nature Medicine, 2002, 8, 466-472).

[8] = test system: CaMKIV-deficient mice; assay: Tail-suspension test and forced swim test in CaMKIV-deficient mice; conditions: chronic oral treatment for 2 weeks, 1 mg/kg
Description: By following the same procedure as in Test Example 12, CaMKIV-deficient mice (n=5*per group) were analyzed for CaMKIV induced by Kir6.1 channels.
The CaMKIV-deficient mice were obtained from professor Hiroyuki Sakagami, Kitasato University School of Medicine (Takao K., et al., PLoS One 2010, 5, e9460).

SMILES: O=C(N[C@@H](c1ccccc1)[C@H]1[C@H]2C[C@@H]3C[C@](Cl)(C2)C[C@@]1(OC(=O)C(F)(F)F)C3)C(F)(F)F [TP-014, (1S,2R,3S,5S,7S)-5-chloro-2-((R)-phenyl(2,2,2-trifluoroacetamido)methyl)adamantan-1-yl 2,2,2-trifluoroacetate]
- anxiety-like symptoms [1]: no ameliorating effect was observed
- attentional function (Y-maze test, percent alternation) [2]: significantly enhanced
- Aβ aggregation [3]: suppressed
- memory impairment and LTP attenuation [4]: not improved
- fear memory (latency, fear conditioning test) [5]: improvement in fear memory
- CaMKII activation in hippocampus [6]: no effect
- depression-like symptom (immobility time) [7]: no effect
- depression-like symptom (increased immobility time) [8]: no effect
